The values that follow come from patent publication US12522610B2 (priority 2018, dated 2026).

The nature of one data set: physchem. The following applies: 55 °C, aqueous with cosolvent or surfactant or cyclodextrin, thermodynamic from solid.
The conditions of data set [1]: salt forms; dissolution medium, 55° C. water bath, 60 rpm; Table 4.

Values after ≈ are worked out from the molar mass of the structure shown. Like-named read-outs stand apart in the source and are kept apart here.

The solubility is the concentration that dissolves in the medium under given conditions. Turning to `COC12CC[C@@]3(C[C@@H]1[C@](C)(O)C(C)(C)C)C1Cc4ccc(O)c5c4[C@@]3(CCN1CC1CC1)[C@H]2O5` [Buprenorphine free base], in “physchem”, the concentration in solution (solubility) came to 1180 µg/mL (≈ 2510 µM).
Turning to “Buprenorphine acetate-hydrochloride salt”, the “solubility” value in data set [1] was found to be 1716 µg/mL.
